Source: paper PMC3403540, “Active Hydrophilic Components of the Medicinal Herb Salvia miltiorrhiza (Danshen) Potently Inhibit Organic Anion Transporters 1 (Slc22a6) and 3 (Slc22a8)” (Evidence-based Complementary and Alternative Medicine : eCAM, 2012)

Molecular target: T1, mOat3 (Mus musculus, UniProt O88909)
T1 construct: expressed in transfected cells; host or cells: CHO (Chinese hamster ovary), stably transfected (CHO-mOat3)
T1 sequence (O88909 1-537): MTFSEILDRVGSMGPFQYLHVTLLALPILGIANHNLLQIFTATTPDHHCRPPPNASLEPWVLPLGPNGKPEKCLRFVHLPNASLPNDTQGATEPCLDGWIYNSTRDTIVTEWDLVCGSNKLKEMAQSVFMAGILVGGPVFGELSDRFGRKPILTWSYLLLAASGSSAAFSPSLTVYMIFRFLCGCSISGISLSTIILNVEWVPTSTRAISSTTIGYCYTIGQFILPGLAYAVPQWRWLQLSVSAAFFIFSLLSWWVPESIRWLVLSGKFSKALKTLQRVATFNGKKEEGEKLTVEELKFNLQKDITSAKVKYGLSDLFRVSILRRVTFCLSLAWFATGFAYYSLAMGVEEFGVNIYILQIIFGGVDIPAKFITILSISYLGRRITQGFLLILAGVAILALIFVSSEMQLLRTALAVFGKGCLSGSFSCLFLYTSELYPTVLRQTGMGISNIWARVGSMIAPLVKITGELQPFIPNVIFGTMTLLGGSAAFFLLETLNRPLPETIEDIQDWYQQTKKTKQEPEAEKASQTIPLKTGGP
Assay: Inhibition of mOat3-mediated [3H]ES uptake in CHO-mOat3 cells (cell accumulation assay)
Assay type: cell-based, murine
Settings: for Ki / inhibition at 1000 µM: 1 μM [3H]ES; for Ki: 1 min, CHO-mOat3, mean ± S.E.M. (n = 3), from IC50 via Cheng-Prusoff, read-out: Estimated K i for mOat3-mediated transport; for inhibition at 1000 µM: 1 mM (1000 μM) inhibitor, 10 min, CHO-mOat3 cells, read-out: inhibition of mOat3-mediated ES uptake; for mode of inhibition of mOat3-mediated transport: mixed inhibition model, ES substrate
Procedure: Derivation of the stably transfected Chinese hamster ovary (CHO) cell lines expressing mOat1 (CHO-mOat1), mOat3 (CHO-mOat3), and the empty vector (FRT) transfected control cell line (CHO-FRT) was described previously.
Cell transport assay procedures were adapted from those previously published. In brief, 2 × 10^5 cells/well were seeded in 24-well tissue culture plates and grown in the absence of antibiotics for 48 hr. On the day of the experiment, cells were equilibrated with transport buffer for 10 min (500 μL of Hanks' balanced salt solution containing 10 mM HEPES, pH 7.4). […] After incubation, cells were immediately rinsed three times with ice-cold transport buffer, lysed, and analyzed via liquid scintillation counting. Uptake values were normalized to corresponding total protein content in cell lysates as determined by the Bradford method. Substrate accumulation is reported as picomoles of substrate per milligram protein. […] Kinetic calculations were performed using GraphPad Prism Software version 5.0 (GraphPad Software Inc., San Diego, CA, USA). Michaelis constant (K m) values were calculated by nonlinear regression using the Michaelis-Menten model. Mode of inhibition was identified by using mixed model inhibition analysis as follows: (1) Vmax Apparent =Vmax/(1+[I]/(α×Ki)),Km Apparent=Km1+[I]/Ki/(1+[I]/(α×Ki)),Y=Vmax Apparent×x/Km Apparent+x, where V max, K i, and I represent the maximum transport velocity without inhibitor, the inhibition constant generated from the data set under analysis, and the concentration of inhibitor, respectively. In this study, three curves were constructed (no inhibitor, plus two selected inhibitor concentrations) with uptake of substrate plotted as a function of its concentration for each condition. […] The parameter, α, can then be used to determine the mode of inhibition. When α is very large (α > 1), it indicates competitive inhibition. Otherwise, it indicates noncompetitive inhibition (α = 1) or uncompetitive inhibition (0 < α < 1). To estimate K i values, IC50 values were calculated using nonlinear regression and inserted into the Cheng-Prusoff equation: K i = IC50/(1 + [Substrate]/K m). Results were confirmed by repeating all experiments at least three times with triplicate wells for each data point in every experiment.
Figure 2 Inhibition profile of mOat1 and mOat3. […] (5 μM) by LSA, PCA, RMA, SAA, SAB, TSL, and probenecid (1000 μM) was measured in the CHO-mOat1 cells (10 min). […] (b) Inhibition of mOat3-mediated uptake of [^3H]ES (1 μM) by LSA, PCA, RMA, SAA, SAB, TSL, and probenecid (1000 μM) was measured in the CHO-mOat3 cells (10 min). […] Values are mean ± S.D. of triplicate values. ***denotes P < 0.001 as determined by one-way ANOVA followed by Dunnett's t-test.
Figure 5 K i determination for LSA, RMA, and SAA in the CHO-mOat3 cell line. One minute uptake of [^3H]ES (1 μM) in CHO-mOat3 cells was measured in the presence of increasing concentrations (10^−7 to 4 × 10^−4 M) of LSA, RMA, and SAA. Data were corrected for nonspecific background measured in the CHO-FRT cells prior to kinetic analysis. K i values were determined with non-linear regression and the “one-site competition” model using GraphPad Prism software. Graphs shown are from representative experiments with values plotted as mean ± S.D. (n = 3).

Ki	inhibition at 1000 µM	mode of inhibition of mOat3-mediated transport	Estimated α value from mixed inhibition model analysis, mOat3 (1 μM ES for 1 min, mean, α > 1 indicates competitive inhibition)	Compound
31.1 ± 7 µM	> 91%	competitive	–	O=C(/C=C/c1ccc(O)c2c1[C@H](C(=O)O)[C@@H](c1ccc(O)c(O)c1)O2)O[C@H](Cc1ccc(O)c(O)c1)C(=O)O [LSA, lithospermic acid]
4.3 ± 0.2 µM	> 91%	competitive	–	O=C(/C=C/c1ccc(O)c(O)c1)O[C@H](Cc1ccc(O)c(O)c1)C(=O)O [RMA, rosmarinic acid]
21.3 ± 7.7 µM	> 91%	competitive	3.4 × 10^14	O=C(/C=C/c1ccc(O)c(O)c1/C=C/c1ccc(O)c(O)c1)O[C@H](Cc1ccc(O)c(O)c1)C(=O)O [SAA, salvianolic acid A]

Compound	Ki	inhibition at 1000 µM	mode of inhibition of mOat3-mediated transport	Estimated α value from mixed inhibition model analysis, mOat3 (1 μM ES for 1 min, mean, α > 1 indicates competitive inhibition)
O=C(O)C(O)Cc1ccc(O)c(O)c1 (centres unmarked) [TSL, tanshinol]	–	~55%	–	–
